# Source: US8809344B2, “Compounds, compositions, and methods for control of hepatitis C viral infections” (priority 2008, dated 2014)
# Columns and labels:
# [1] = test system: HCV genotype 1b subgenomic replicon (Con1 strain); assay: microbe, parasite or virus in culture; format: cell-based; details: Hepatitis C virus; 24 hours post-treatment; Renilla luciferase; Huh7.5 cells
# Excerpt: The replicon used in these studies was a transient genotype 1b subgenomic replicon generated from the Con1 strain. In this replicon, the HCV internal ribosome entry site (IRES) within the 5′ non-translated region (NTR) drives expression of the first 32 amino acids of the core protein fused to humanized Renilla luciferase (hRluc). The encephalomycarditis IRES lies 3′ to the hRluc open reading frame (ORF) and drives expression of non-structural (NS) proteins NS3 through NS5B. Huh7.5 cells (U.S. patent application Ser. No. 10/534,571) harboring this replicon were seeded into 96-well plates at 20,000 cells per well in medium containing 10% FBS, 1× penicillin/streptomycin, 1× non-essential amino acids, and 100 ng/ml Fungizone. After a four hour attachment period, compound was added to wells using a five point 3-fold serial dilution series with four replicate treatments per dose. Final DMSO percentage was 1% in a total volume of 200 ul. Compound-mediated HCV inhibition and toxicity were assayed 24 hours post-treatment using Renilla luciferase readout and an ATP viability assay (CellTiter-Glo, Promega, Madison, Wis., USA), respectively.
# [2] = test system: genotype 2a replicon encoding genotype 1b NS4B amino acids 53-254; assay: Chimeric genotype 1b/2a replicon (NS4B aa 53-254 from 1b) in Huh7.5 cells; format: cell-based, hepatitis C virus
# Excerpt: (§1) That NS4B is the target of 80978 was confirmed by a complementary approach. The differential response to 80978 by HCV genotype 1b and 2a replicons allowed the use of chimeric replicons to narrow down the region of the HCV genotype 1b NS4B coding region that confers sensitivity to 80978. The nucleotide sequence of the wild type HCV genotype 2a NS4B is provided as SEQ ID NO: 7 and the wild type HCV genotype 2a NS4B protein sequence is provided as SEQ ID NO:8. Using a plasmid containing an 80978-resistant stable HCV genotype 2a subgenomic reporter replicon cDNA, six replacement, or chimeric constructs were made, where the regions encoding the following amino acids of NS4B were replaced with the regions encoding the corresponding amino acids of NS4B from HCV genotype 1b: (i) 7-254, (ii) 7-52, (iii) 53-254, (iv) 219-254, (v) 7-52 and 219-254, and (vi) 53 to 218. The full-length NS4B protein is 261 amino acids in length and is provided as SEQ ID NO:2. Thus, if any of these segments of NS4B from genotype 1b are sufficient to confer 80978-sensitivity to a genotype 2a HCV replicon, it will render the chimeric genotype 1b/genotype 2a replicon sensitive to the compound.
# (§2) Response to 80978 was measured initially in unselected cells. […] All of the chimeric and wild type control constructs were responsive to Cyclosporin A (CsA).
# [3] = test system: all other chimeric replicons and the genotype 2a parental replicon; assay: Other chimeric replicons and genotype 2a parental replicon in Huh7.5 cells; format: cell-based; details: Hepatitis C virus
# Excerpt: as §1, §2
# [4] = test system: chimeric APV112 HCV (genotype 2a with genotype 1b NS4B amino acids 53 to 218); assay: HCV APV112 viral infectivity assay in Huh7.5 cells, 3′NTR RNA by realtime quantitative PCR; format: cell-based, hepatitis C virus; details: for Log change in 3′NTR copies relative to 1.0% DMSO (GAPDH normalized): 48 hours; for chimeric APV112 viral infectivity: sensitive genotype 1b NS4B region
# Protocol: (§3) Inhibition of HCV infectivity by AP0080978 and its analogs (AP0080977, non-active enantiomer; AP0089652, racemate; and AP0080935, an aromatic, non-optically active analog of AP0080978) was assayed by exposing cells with infectious chimeric HCV virions in the presence of the compounds. This was accomplished by use of an HCV cell culture system essentially as described in Pietschmann, T. et al. (2006) 103(19): 7408-13, Proc. Natl. Acad. Sci. USA; and elsewhere. Two viral constructs were utilized to characterize inhibition of viral infectivity (FIG. 4). Construct APV23 (FL-J6/JFH) is a full-length, chimeric, genotype 2a HCV genome containing the HCV core through the NS2 first transmembrane domain coding region from the J6 HCV isolate linked to the second NS2 transmembrane domain NS3 through NS5B coding region of HCV strain JFH-1, as shown in FIG. 4 (i.e. an HCV chimera with the “C3 Junction” described in Pietschmann, T. et al. (2006) Proc. Natl. Acad. Sci. USA 103(19): 7408-13; see page 7409 and FIG. 2A of Pietschmann, T. et al.). Construct APV112 was generated by replacing nucleotides encoding amino acids 53 to 218 of the NS4B gene of the APV23 sequence with a corresponding sequence from a genotype 1b (Con1 strain).
# (§4) Huh7.5 cells were plated at a density of 20,000 cells per well in 96-well plates. The cells were exposed to the chimeric HCV virions at a multiplicity of infection of 0.01. Potential inhibitory compounds were added simultaneously with the chimeric virus. Cells were incubated for 48 hours and then the levels of HCV 3′NTR and GAPDH RNA were quantified by realtime quantitative PCR. Data were analyzed by the comparative Ct method with delta-delta Ct determined relative to 1.0% DMSO. Results in FIGS. 5 and 6 are depicted as log change in 3′NTR copies relative to 1.0% DMSO.
# [5] = test system: chimeric APV23 (FL-J6/JFH) genotype 2a HCV; assay: HCV APV23 viral infectivity assay in Huh7.5 cells, 3′NTR RNA by realtime quantitative PCR; format: cell-based, hepatitis C virus; details: FIG. 6, genotype 2a NS4B coding region
# Protocol: as §3, §4
compound,measurement,setting,value
"O=C(NCc1cccs1)c1nn2c(c1Cl)N[C@H](c1ccco1)C[C@@H]2C(F)(F)F (single isomer, unassigned) [Compound 80978]",EC50,[1],1800 nM
same,response to 80978,"[2]; Geneticin-selected stable replicon-containing cells, amino acids 53-254",responsive
same,EC50,"[2]; Hepatitis C virus, Huh7.5",< 2500 nM
same,EC50,[3],> 20000 nM
same,potency in viral infectivity assays relative to HCV replicon assays,[4],significantly more potent
same,greater log change relative to the log change of the 89652 racemate,"[4]; 0.02 μM, APV112",5.3 fold
same,Log change in 3′NTR copies relative to 1.0% DMSO (GAPDH normalized),"[4]; 0.02 μM, APV112",−0.79
same,Log change in 3′NTR copies relative to 1.0% DMSO (GAPDH normalized),"[4]; 0.07 μM, APV112",−1.29
same,Log change in 3′NTR copies relative to 1.0% DMSO (GAPDH normalized),"[4]; 0.22 μM, APV112",−1.52
same,Log change in 3′NTR copies relative to 1.0% DMSO (GAPDH normalized),"[4]; 0.67 μM, APV112",−1.67
same,Log change in 3′NTR copies relative to 1.0% DMSO (GAPDH normalized),"[4]; 2 μM, APV112",−1.49
same,"potency relative to control HCV inhibitors 2′CMeA, VX-950, cyclosporin A and a-CD81 antibody (JS81)","[4]; FIG. 5, APV112",significantly more potent
same,chimeric APV112 viral infectivity,"[4]; FIG. 5, listed as AP 80978",able to inhibit
same,chimeric APV112 viral infectivity,"[4]; FIG. 5, listed as AP0080978",reduced
same,chimeric APV23 viral infectivity,[5]; listed as AP 80978,resistant
same,chimeric APV23 viral infectivity,[5]; listed as AP0080978,unaffected
